Experiment [1] is described as follows: Selectivity ratio of Ki for rat nNOS to Ki for mouse iNOS.
In experiment [2] the target is T1, Nitric oxide synthase, inducible (Mus musculus, UniProt P29477).
T1 sequence (P29477 whole entry): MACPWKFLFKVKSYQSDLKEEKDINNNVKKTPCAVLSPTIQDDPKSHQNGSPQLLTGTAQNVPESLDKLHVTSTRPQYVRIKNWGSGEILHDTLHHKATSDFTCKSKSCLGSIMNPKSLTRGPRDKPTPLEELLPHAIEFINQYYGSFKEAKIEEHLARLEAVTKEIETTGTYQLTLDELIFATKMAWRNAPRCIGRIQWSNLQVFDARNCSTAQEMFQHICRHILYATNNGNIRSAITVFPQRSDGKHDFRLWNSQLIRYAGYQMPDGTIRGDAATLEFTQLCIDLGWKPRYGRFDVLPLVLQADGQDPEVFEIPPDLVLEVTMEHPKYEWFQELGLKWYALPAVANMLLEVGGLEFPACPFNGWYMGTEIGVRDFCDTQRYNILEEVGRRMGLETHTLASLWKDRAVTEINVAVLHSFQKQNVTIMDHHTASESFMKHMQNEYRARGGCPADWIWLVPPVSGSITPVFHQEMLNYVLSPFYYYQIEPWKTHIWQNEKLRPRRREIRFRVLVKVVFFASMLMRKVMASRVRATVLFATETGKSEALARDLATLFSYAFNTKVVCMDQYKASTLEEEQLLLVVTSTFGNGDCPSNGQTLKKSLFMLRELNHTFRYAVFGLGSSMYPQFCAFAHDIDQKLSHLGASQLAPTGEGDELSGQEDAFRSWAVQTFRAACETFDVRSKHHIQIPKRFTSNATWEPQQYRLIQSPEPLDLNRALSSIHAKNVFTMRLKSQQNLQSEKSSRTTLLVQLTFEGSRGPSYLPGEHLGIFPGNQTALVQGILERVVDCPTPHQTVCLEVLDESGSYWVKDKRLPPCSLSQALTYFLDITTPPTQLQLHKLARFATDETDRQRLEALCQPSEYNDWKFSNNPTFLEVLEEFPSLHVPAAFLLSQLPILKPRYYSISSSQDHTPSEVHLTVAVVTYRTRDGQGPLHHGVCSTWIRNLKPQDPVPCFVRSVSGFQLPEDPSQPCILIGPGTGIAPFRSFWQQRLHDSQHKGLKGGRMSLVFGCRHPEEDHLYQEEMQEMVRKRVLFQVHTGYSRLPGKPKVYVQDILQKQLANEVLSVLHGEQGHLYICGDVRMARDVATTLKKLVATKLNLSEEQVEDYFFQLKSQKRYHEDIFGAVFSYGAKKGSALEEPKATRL
The experiment in a line: Inhibition of mouse iNOS expressed in Escherichia coli using L-arginine as substrate assessed as formation of nitric oxide by hemoglobin capture assay.

Experiment [3] in a line: Selectivity ratio of Ki for rat nNOS to Ki for bovine eNOS.
The target in another experiment is T2, Nitric oxide synthase 3 (Bos taurus, UniProt P29473).
T2 sequence (P29473 whole entry): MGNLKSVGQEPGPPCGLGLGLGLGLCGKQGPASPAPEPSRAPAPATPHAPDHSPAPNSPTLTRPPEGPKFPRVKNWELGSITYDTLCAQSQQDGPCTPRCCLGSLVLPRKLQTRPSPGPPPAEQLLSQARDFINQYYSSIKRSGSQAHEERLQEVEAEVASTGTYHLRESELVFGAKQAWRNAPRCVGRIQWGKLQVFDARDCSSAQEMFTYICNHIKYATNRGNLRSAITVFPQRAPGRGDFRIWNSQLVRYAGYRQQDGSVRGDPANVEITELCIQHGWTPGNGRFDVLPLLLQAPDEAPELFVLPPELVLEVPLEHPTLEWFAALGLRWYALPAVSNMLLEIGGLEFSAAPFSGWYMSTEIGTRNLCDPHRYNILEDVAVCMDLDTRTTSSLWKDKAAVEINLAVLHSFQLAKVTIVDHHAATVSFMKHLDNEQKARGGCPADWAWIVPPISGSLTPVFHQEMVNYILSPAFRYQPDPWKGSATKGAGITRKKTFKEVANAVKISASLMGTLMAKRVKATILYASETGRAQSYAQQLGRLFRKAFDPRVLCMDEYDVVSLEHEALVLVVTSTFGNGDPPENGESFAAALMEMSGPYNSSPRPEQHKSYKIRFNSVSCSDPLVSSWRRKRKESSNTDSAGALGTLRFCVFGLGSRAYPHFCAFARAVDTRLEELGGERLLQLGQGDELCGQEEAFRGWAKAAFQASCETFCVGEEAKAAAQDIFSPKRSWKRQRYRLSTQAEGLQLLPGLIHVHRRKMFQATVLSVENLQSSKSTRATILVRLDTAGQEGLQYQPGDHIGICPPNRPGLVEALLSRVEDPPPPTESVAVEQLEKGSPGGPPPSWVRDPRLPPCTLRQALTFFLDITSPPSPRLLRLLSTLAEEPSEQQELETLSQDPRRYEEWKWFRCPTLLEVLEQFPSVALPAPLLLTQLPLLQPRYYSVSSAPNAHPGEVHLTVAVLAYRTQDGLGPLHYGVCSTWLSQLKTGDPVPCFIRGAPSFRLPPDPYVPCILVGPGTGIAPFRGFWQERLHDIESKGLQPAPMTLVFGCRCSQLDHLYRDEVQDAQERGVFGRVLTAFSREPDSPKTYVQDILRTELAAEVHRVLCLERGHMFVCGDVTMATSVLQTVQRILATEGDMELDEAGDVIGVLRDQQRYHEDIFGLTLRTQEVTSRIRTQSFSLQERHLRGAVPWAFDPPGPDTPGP
As to the kind of experiment: Inhibition of bovine eNOS expressed in Escherichia coli using L-arginine as substrate assessed as formation of nitric oxide by hemoglobin capture assay.

Another experiment concerns the target Nitric oxide synthase 1 (Rattus norvegicus, UniProt P29476). The experiment in a line: Inhibition of rat nNOS expressed in Escherichia coli using L-arginine as substrate assessed as formation of nitric oxide by hemoglobin capture assay.

Molecules are shown by their SMILES.

Chain of Nitric oxide synthase 1 (P29476 whole entry): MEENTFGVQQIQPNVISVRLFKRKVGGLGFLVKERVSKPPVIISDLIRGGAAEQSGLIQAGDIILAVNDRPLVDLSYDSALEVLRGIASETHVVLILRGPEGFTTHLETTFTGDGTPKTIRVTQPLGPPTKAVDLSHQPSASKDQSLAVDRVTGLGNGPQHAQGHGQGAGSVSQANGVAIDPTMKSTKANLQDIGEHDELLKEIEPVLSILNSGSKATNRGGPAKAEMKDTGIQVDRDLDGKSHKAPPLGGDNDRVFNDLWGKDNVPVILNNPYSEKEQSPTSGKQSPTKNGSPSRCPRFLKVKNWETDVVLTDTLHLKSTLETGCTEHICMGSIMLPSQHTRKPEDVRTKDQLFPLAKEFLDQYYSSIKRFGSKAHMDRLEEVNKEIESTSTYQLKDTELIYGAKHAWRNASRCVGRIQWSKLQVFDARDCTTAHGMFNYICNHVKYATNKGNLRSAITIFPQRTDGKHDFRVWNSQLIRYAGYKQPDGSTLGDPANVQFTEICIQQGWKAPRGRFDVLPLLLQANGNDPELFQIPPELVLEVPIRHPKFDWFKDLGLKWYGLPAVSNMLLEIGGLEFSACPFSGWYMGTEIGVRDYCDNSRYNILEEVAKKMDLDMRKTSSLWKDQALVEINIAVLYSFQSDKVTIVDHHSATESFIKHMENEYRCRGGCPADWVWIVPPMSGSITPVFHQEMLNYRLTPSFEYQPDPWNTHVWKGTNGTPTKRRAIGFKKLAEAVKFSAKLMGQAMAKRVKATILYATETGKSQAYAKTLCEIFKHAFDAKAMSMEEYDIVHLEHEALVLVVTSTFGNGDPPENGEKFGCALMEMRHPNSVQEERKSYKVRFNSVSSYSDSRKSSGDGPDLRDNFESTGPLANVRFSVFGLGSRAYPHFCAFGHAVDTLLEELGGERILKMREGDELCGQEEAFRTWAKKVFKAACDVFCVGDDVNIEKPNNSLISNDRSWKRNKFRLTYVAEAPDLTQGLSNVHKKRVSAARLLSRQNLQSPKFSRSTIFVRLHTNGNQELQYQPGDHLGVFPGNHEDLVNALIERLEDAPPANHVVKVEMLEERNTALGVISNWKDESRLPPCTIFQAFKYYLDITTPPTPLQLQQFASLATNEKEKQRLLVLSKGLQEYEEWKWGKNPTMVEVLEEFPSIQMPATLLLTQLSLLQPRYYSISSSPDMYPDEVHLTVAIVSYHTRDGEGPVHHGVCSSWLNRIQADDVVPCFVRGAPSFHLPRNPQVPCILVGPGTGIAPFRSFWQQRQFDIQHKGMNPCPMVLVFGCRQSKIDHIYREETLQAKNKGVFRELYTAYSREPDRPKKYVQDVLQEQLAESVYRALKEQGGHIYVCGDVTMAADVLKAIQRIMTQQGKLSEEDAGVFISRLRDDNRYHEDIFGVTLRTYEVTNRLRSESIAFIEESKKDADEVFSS

Broadly, the Ki is a dissociation constant, usually derived from enzyme kinetics or from competition with a known ligand. Take `Cc1cc(N)nc(C[C@@H]2CNC[C@@H]2OCCNC2CC2c2cccc(F)c2)c1` (mixture of isomers): the Ratio Ki in experiment [1] amounted to 94; in experiment [3], 300. In addition, the Ki came out at 16 µM in experiment [2], 51 µM on Nitric oxide synthase 3 and 0.17 µM at Nitric oxide synthase 1.
On to `Cc1cc(N)nc(C[C@@H]2CNC[C@@H]2OCCNC2CC2c2cccc(Cl)c2)c1` (mixture of isomers), for which the Ratio Ki is 12 in experiment [1] and 370 in experiment [3].
Consider `Cc1cc(N)nc(C[C@@H]2CNC[C@@H]2OCCN[C@H](C)Cc2cccc(F)c2)c1`, for which the Ratio Ki in experiment [1] stood at 110; in experiment [3], 570. Further, the values for the inhibition constant Ki (in experiment [2]; on Nitric oxide synthase 3; at Nitric oxide synthase 1) were 7.6 µM, 40 µM and 0.07 µM, respectively.
`Cc1cc(N)nc(C[C@@H]2CNC[C@@H]2OCCNC(C)Cc2cccc(F)c2)c1` (mixture of isomers): the Ratio Ki came to 12 in experiment [1] and 370 in experiment [3].

(Values after ChEMBL document CHEMBL2331549, “Cyclopropyl- and methyl-containing inhibitors of neuronal nitric oxide synthase” (Bioorg Med Chem, 2013).)
